From paper PMC7539012, “Hyperphosphorylated tau aggregation and cytotoxicity modulators screen identified prescription drugs linked to Alzheimer's disease and cognitive functions” (Scientific Reports, 2020)
Where a name gives a salt, the structure may show the parent alone. Read-outs that look alike come from different tables or passages of the source. *1 amine or outer side, *2 acyl side, *3 side chain or, on linkers, in order; H or OH if unused. Where a SMILES comes first, the peptide text is derived from it. Bridges are numbered along the chain shown (N, C = ends). [ ]: non-standard residue; d: D form. The star is where a group is joined. X1 = NC1=N[C@@H](O)C[C@H]([C@H](N[*:1])C(=O)[*:2])N1; ΔAla(Z-3-ureido) = NC(=O)N/C=C(\N)C(=O)O; β3hOrn = NCCC[C@H](N)CC(=O)*; Dap = NC[C@H](N)C(=O)O

Tested on: T1, 1N4R p-tau
T1 construct: made in house; host or cells: E. coli (PIMAX system)
Experiment: p-tau aggregation modulator screen of 1280-compound library (ThS fluorescence net change over 16 h)
Type: biochemical
Parameters: key to PTAI>3SD: *: PTAI>3SD
Conditions: for effect on p-tau aggregation in pilot screen: 30 µM compound, 6 µM p-tau, 16 h

[1] = p-tau aggregation modulator screen of 1280-compound library, […]
[2] = p-tau aggregation modulator screen of 1280-compound library, ThS fluorescence net change
[3] = library screen, ThS fluorescence net change over 16 h with p-tau
[4] = 1280-compound library screen, ThS fluorescence net change over 16 h
[5] = p-tau aggregation modulator screen of the compound library, ThS fluorescence net change
[6] = 1280-compound library screen, […]

`COc1ccc(CN2CCNCC2)c(OC)c1OC` [Trimetazidine dihydrochloride] showed a ThS net change [1] of 365.
`CN1C(=O)OC(C)(C)C1=O` [Trimethadione] was tested, and the ThS net change [2] was 346.
Work on `COc1cc(C(=O)NCc2ccc(OCCN(C)C)cc2)cc(OC)c1OC` [Trimethobenzamide hydrochloride] yielded a ThS net change [3] of 322.
In the case of `COc1cc(Cc2cnc(N)nc2N)cc(OC)c1OC` [Trimethoprim], the ThS net change [2] is reported as 360.
`COc1cc(C(=O)N2CCOCC2)cc(OC)c1OC` [Trimetozine] showed a ThS net change [4] of 404.
`CC(CN(C)C)CN1c2ccccc2CCc2ccccc21.O=C(O)/C=C\C(=O)O` (centres unmarked) [Trimipramine maleate salt] was tested, and the ThS net change [4] was 399.
For `Cc1cc2cc3c(C)cc(=O)oc3c(C)c2o1` [Trioxsalen], the ThS net change [4] was 390.
Compound `CN(C)CCN(Cc1ccccc1)c1ccccn1` [Tripelennamine hydrochloride] has a ThS net change [5] of 414.
With `Cc1ccc(/C(=C\CN2CCCC2)c2ccccn2)cc1.Cl` [Triprolidine hydrochloride] the ThS net change [2] was 360.
`Cc1c(C)c2c(c(C)c1O)CCC(C)(COc1ccc(CC3SC(=O)NC3=O)cc1)O2` (centres unmarked) [Troglitazone] was tested, and the ThS net change [5] was 451.
With `CO[C@H]1C[C@H](O[C@H]2[C@H](C)[C@@H](O[C@@H]3O[C@H](C)C[C@H](N(C)C)[C@H]3OC(C)=O)[C@@H](C)C[C@@]3(CO3)C(=O)[C@H](C)[C@@H](OC(C)=O)[C@@H](C)[C@@H](C)OC(=O)[C@@H]2C)O[C@@H](C)[C@@H]1OC(C)=O` [Troleandomycin] the ThS net change [2] was 357.
`Cc1c(C)c2c(c(C)c1O)CCC(C)(C(=O)O)O2` (centres unmarked) [Trolox] showed a ThS net change [5] of 413.
For `COc1cc(C(=O)NC2CCCNC2)cc(OC)c1OC` (centres unmarked) [Troxipide], the ThS net change [4] was 407.
Compound `CC(C)(C)NCC(O)c1ccccc1Cl` (centres unmarked) [Tulobuterol] has a ThS net change [4] of 398.
`CC[C@H]1OC(=O)C[C@@H](O)[C@H](C)[C@@H](O[C@@H]2O[C@H](C)[C@@H](O[C@H]3C[C@@](C)(O)[C@@H](O)[C@H](C)O3)[C@H](N(C)C)[C@H]2O)[C@@H](CC=O)C[C@@H](C)C(=O)/C=C/C(C)=C/[C@@H]1CO[C@@H]1O[C@H](C)[C@@H](O)[C@@H](OC)[C@H]1OC` [Tylosin] gave a ThS net change [2] of 372.
`CC(C)C[C@H](NC(=O)[C@@H](O)[C@H](N)Cc1ccccc1)C(=O)O` [Ubenimex] gave a ThS net change [4] of 390.
`COc1ccccc1N1CCN(CCCNc2cc(=O)n(C)c(=O)n2C)CC1` [Urapidil hydrochloride] gave a ThS net change [4] of 388.
For `C[C@H](CCC(=O)O)[C@H]1CC[C@H]2[C@@H]3[C@@H](O)C[C@@H]4C[C@H](O)CC[C@]4(C)[C@H]3CC[C@]12C` [Urosiol], the ThS net change [5] was 426.
Work on `CC(C)[C@H](N)C(=O)OCCOCn1cnc2c(=O)[nH]c(N)nc21` [Valacyclovir hydrochloride] yielded a ThS net change [4] of 396.
In the case of `Cc1onc(-c2ccccc2)c1-c1ccc(S(N)(=O)=O)cc1` [Valdecoxib], the ThS net change [4] is reported as 393.
For `CCCC(CCC)C(=O)O` [Valproic acid], the ThS net change [4] was 403.
Work on `CCCCC(=O)N(Cc1ccc(-c2ccccc2-c2nnn[nH]2)cc1)[C@H](C(=O)O)C(C)C` [Valsartan] yielded a ThS net change [5] of 417.
In the case of `CN[C@H](CC(C)C)C(=O)N[C@H]1C(=O)N[C@@H](CC(N)=O)C(=O)N[C@H]2C(=O)N[C@H]3C(=O)N[C@H](C(=O)N[C@H](C(=O)O)c4cc(O)cc(O)c4-c4cc3ccc4O)[C@H](O)c3ccc(c(Cl)c3)Oc3cc2cc(c3O[C@@H]2O[C@H](CO)[C@@H](O)[C@H](O)[C@H]2O[C@H]2C[C@](C)(N)[C@H](O)[C@H](C)O2)Oc2ccc(cc2Cl)[C@H]1O` [Vancomycin hydrochloride], the ThS net change is reported as 408.
Compound `CCCc1nc(C)c2c(=O)[nH]c(-c3cc(S(=O)(=O)N4CCN(CC)CC4)ccc3OCC)nn12` [Vardenafil] has a ThS net change [5] of 414.
In the case of `Clc1ccc(Nc2nnc(Cc3ccncc3)c3ccccc23)cc1` [Vatalanib], the ThS net change [2] is reported as 356.
With `CC(=O)O[C@H]1C[C@@H]2CC[C@@H]3[C@H](CC[C@@]4(C)[C@H]3C[C@H]([N+]3(C)CCCCC3)[C@@H]4OC(C)=O)[C@@]2(C)C[C@@H]1N1CCCCC1` [Vecuronium bromide] the ThS net change [6] was 382.
`COc1ccc(C(CN(C)C)C2(O)CCCCC2)cc1` (centres unmarked) [Venlafaxine] gave a ThS net change [6] of 404.
`COc1ccc(CCN(C)CCCC(C#N)(c2ccc(OC)c(OC)c2)C(C)C)cc1OC` (centres unmarked) [Verapamil hydrochloride] gave a ThS net change of 325.
In the case of `C=Cc1c(C)c2cc3nc(cc4[nH]c(cc5nc(cc1[nH]2)C(C)=C5CCC(=O)O)c(CCC(=O)OC)c4C)[C@@]1(C)C3=CC=C(C(=O)OC)C1C(=O)OC` (some centres unmarked) [Verteporfin], the “PTAI>3SD” value (flag: p-tau aggregation inhibitor, ThS net change more than 3 SD from mean) is reported as “*” and the ThS net change [3] is reported as -157.
Work on `Nc1ncnc2c1ncn2[C@@H]1O[C@H](CO)[C@@H](O)[C@@H]1O` [Vidarabine] yielded a ThS net change [4] of 401.
With `C=CC(N)CCC(=O)O` (centres unmarked) [Vigabatrin] the ThS net change [2] was 362.
In the case of `CC[C@]12CCCN3CCc4c(n(c5ccccc45)[C@@](O)(C(=O)OC)C1)[C@@H]32` [Vincamine], the ThS net change [2] is reported as 348.
`CCOC(=O)C1=C[C@]2(CC)CCCN3CCc4c(n1c1ccccc41)[C@@H]32` [Vinpocetine] showed a ThS net change [2] of 370.
`NCCC[C@H](N)CC(=O)N[C@H]1CNC(=O)[C@H]([C@H]2C[C@H](O)N=C(N)N2)NC(=O)/C(=C/NC(N)=O)NC(=O)[C@H](CO)NC(=O)[C@H](CO)NC1=O.O=S(=O)(O)O` [Viomycin sulfate] (β3hOrn-[Dap]SS[ΔAla(Z-3-ureido)][X1]; lactam 1-C) showed a ThS net change [5] of 453.
Compound `C[C@@H](c1ncncc1F)[C@](O)(Cn1cncn1)c1ccc(F)cc1F` [Voriconazole] has a ThS net change [5] of 435.
For `O=C(CCCCCCC(=O)Nc1ccccc1)NO` [Vorinostat], the ThS net change [4] was 398.
Work on `CC(=O)CC(c1ccccc1)c1c(O)c2ccccc2oc1=O` (centres unmarked) [Warfarin] yielded a ThS net change [5] of 413.
`O=C(NCCNCC(O)COc1ccc(O)cc1)N1CCOCC1` (centres unmarked) [Xamoterol hemifumarate] was tested, and the ThS net change [2] was 378.
`Cc1cccc(C)c1N=C1NCCCS1` [Xylazine] was tested, and the ThS net change [1] was 366.
Compound `Cc1cc(C(C)(C)C)cc(C)c1CC1=NCCN1` [Xylometazoline hydrochloride] has a ThS net change of 295.
For `COC(=O)[C@@H]1[C@H]2C[C@H]3c4[nH]c5ccccc5c4CCN3C[C@@H]2CC[C@@H]1O` [Yohimbine hydrochloride], the ThS net change [5] was 418.
Work on `COc1cc(C(=O)NS(=O)(=O)c2ccccc2C)ccc1Cc1cn(C)c2ccc(NC(=O)OC3CCCC3)cc12` [Zafirlukast] yielded a ThS net change [5] of 549.
`Nc1ccn([C@H]2CC[C@@H](CO)O2)c(=O)n1` [Zalcitabine] was tested, and the ThS net change [4] was 410.
`CCN(C(C)=O)c1cccc(-c2ccnc3c(C#N)cnn23)c1` [Zaleplon] showed a ThS net change [1] of 368.
`CCCOc1ccccc1-c1nc2nn[nH]c2c(=O)[nH]1` [Zaprinast] was tested, and the ThS net change [2] was 335.
`COc1cc(-c2ccc(=O)[nH]n2)ccc1OC(F)F` [Zardaverine] was tested, and the ThS net change [5] was 454.
Compound `Cc1cn([C@H]2C[C@H](N=[N+]=[N-])[C@@H](CO)O2)c(=O)[nH]c1=O` [Zidovudine, AZT] has a ThS net change [5] of 448.
For `CC(c1cc2ccccc2s1)N(O)C(N)=O` (centres unmarked) [Zileuton], the ThS net change [4] was 410.
In the case of `CN(C)C/C=C(\c1ccc(Br)cc1)c1cccnc1.Cl.Cl.O` [Zimelidine dihydrochloride monohydrate], the ThS net change is reported as 325.
Compound `O=C1Cc2cc(CCN3CCN(c4nsc5ccccc45)CC3)c(Cl)cc2N1` [Ziprasidone Hydrochloride] has a ThS net change [3] of 293.
In the case of `O=P(O)(O)C(O)(Cn1ccnc1)P(=O)(O)O` [Zoledronic acid hydrate], the ThS net change [6] is reported as 398.
Compound `Cc1cc(CC(=O)[O-])n(C)c1C(=O)c1ccc(Cl)cc1.[Na+]` [Zomepirac sodium salt] has a ThS net change [2] of 356.
`NS(=O)(=O)Cc1noc2ccccc12` [Zonisamide] gave a ThS net change [2] of 341.
For `CN1CCN(C(=O)OC2c3nccnc3C(=O)N2c2ccc(Cl)cn2)CC1` (centres unmarked) [Zopiclone], the ThS net change [6] was 407.
Work on `CN(C)CCOC1=Cc2ccccc2Sc2ccc(Cl)cc21` [Zotepine] yielded a ThS net change [4] of 388.
Work on `Cl.Cl.OCCN1CCN(CC/C=C2/c3ccccc3Sc3ccc(Cl)cc32)CC1` [Zuclopenthixol dihydrochloride] yielded a ThS net change [4] of 398.
With `CC/C(=C(/CC)c1ccc(O)cc1)c1ccc(O)cc1` [diethylstilbestrol, reference compound] the “effect on p-tau aggregation in pilot screen” value was “none of them affected p-tau aggregation” and the ThS net change [4] was 406.
In the case of `CC/C(=C(\c1ccccc1)c1ccc(OCCN(C)C)cc1)c1ccccc1` [tamoxifen, reference compound], the “effect on p-tau aggregation in pilot screen” value is reported as “none of them affected p-tau aggregation”.
Beta-Escin gave a ThS net change of 471.
Work on Deoxycorticosterone yielded a ThS net change [1] of 346.
Hydralazine hydrochloride showed a ThS net change of 214.
With Josamycin the ThS net change [5] was 446.
In the case of Lymecycline, the ThS net change is reported as 312.
Merbromin gave a ThS net change of 306.
Minoxidil gave a ThS net change [4] of 412.
With Molsidomine the ThS net change [6] was 401.
Olmesartan was tested, and the ThS net change [5] was 482.
Tropisetron HCl gave a ThS net change of 428.
Tyloxapol gave a ThS net change [5] of 577.
